According to ChEMBL document CHEMBL4800722, “Data for DCP probe BI 605906” (2021):

What was measured:
[1] = molecular target: Serine/threonine-protein kinase WNK3 (Homo sapiens) (UniProt Q9BYP7); assay: WNK3 Invitrogen Lab (UK) kinase screen (BI); settings: Compound concentration 1.0 uM
[2] = molecular target: Casein kinase I isoform delta (Homo sapiens) (UniProt P48730); settings: Compound concentration 1.0 uM
[3] = molecular target: Casein kinase I isoform gamma-1 (Homo sapiens) (UniProt Q9HCP0); assay: CSNK1G1 Invitrogen Lab (UK) kinase screen (BI); settings: Compound concentration 1.0 uM
[4] = molecular target: T1, D(4) dopamine receptor (Homo sapiens) (UniProt P21917); settings: Compound concentration 10.0 uM
T1 sequence (whole entry): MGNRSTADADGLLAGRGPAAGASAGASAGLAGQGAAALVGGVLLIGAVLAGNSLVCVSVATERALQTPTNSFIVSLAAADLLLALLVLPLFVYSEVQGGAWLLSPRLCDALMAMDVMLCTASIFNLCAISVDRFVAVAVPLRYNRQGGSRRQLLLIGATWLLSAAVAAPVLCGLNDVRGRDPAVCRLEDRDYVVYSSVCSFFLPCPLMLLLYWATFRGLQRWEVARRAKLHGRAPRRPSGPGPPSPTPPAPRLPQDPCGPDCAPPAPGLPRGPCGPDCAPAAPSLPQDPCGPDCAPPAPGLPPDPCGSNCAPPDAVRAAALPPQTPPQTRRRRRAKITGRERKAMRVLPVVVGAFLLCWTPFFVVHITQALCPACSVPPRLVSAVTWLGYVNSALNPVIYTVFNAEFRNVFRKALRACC

[5] = molecular target: GABA-A receptor; anion channel (Rattus norvegicus) (UniProt O09028+P15431+P18506+P18508+P19969+P20236+P23574+P23576+P28471+P28473+P30191+P62813+P63079+P63138+Q91ZM7+Q9ES14); settings: Compound concentration 10.0 uM
[6] = molecular target: AMPK alpha2/beta2/gamma3 (Homo sapiens) (UniProt P54646+O43741+Q9UGI9); settings: Compound concentration 1.0 uM
[7] = molecular target: Ephrin type-B receptor 1 (Homo sapiens) (UniProt P54762); assay: EPHB1 Invitrogen Lab (UK) kinase screen (BI); settings: Compound concentration 1.0 uM
[8] = molecular target: Epidermal growth factor receptor (Homo sapiens) (UniProt P00533)
[9] = molecular target: Vascular endothelial growth factor receptor 3 (Homo sapiens) (UniProt P35916); settings: Compound concentration 1.0 uM
[10] = molecular target: Proto-oncogene tyrosine-protein kinase ROS (Homo sapiens) (UniProt P08922); settings: Compound concentration 1.0 uM
[11] = GPCRScan assay: inhibition of GABA/PBR; set-up: species or system Rattus norvegicus; radioligand conc. used [nm] 0.3 – 2.0, parental cells brain tissue
[12] = molecular target: Dual specificity tyrosine-phosphorylation-regulated kinase 1A (Homo sapiens) (UniProt Q13627); assay: DYRK1A DUNDEE kinase screen (BI); settings: Rattus norvegicus; Compound concentration 10.0 uM
[13] = molecular target: Aurora kinase A (Homo sapiens) (UniProt O14965)
[14] = molecular target: Dual specificity protein kinase CLK4 (Homo sapiens) (UniProt Q9HAZ1); assay: CLK4 Invitrogen Lab (UK) kinase screen (BI); settings: Compound concentration 1.0 uM
[15] = molecular target: Phosphatidylinositol 4-kinase alpha (Homo sapiens) (UniProt P42356); assay: PI4KA Invitrogen Lab (UK) kinase screen (BI); settings: Compound concentration 1.0 uM
[16] = molecular target: Protein kinase C alpha type (Homo sapiens) (UniProt P17252); assay: PKCA DUNDEE kinase screen (BI); settings: Compound concentration 10.0 uM
[17] = molecular target: Dual specificity mitogen-activated protein kinase kinase 5 (Homo sapiens) (UniProt Q13163); assay: MAP2K5 Invitrogen Lab (UK) kinase screen (BI); settings: Compound concentration 1.0 uM
[18] = molecular target: Calcium/calmodulin-dependent protein kinase type II subunit delta (Homo sapiens) (UniProt Q13557); settings: Compound concentration 1.0 uM
[19] = molecular target: Death-associated protein kinase 2 (Homo sapiens) (UniProt Q9UIK4); assay: DAPK2 Invitrogen Lab (UK) kinase screen (BI); settings: Compound concentration 1.0 uM
[20] = molecular target: Calcium/calmodulin-dependent protein kinase kinase 1 (Homo sapiens) (UniProt Q8N5S9); settings: Compound concentration 1.0 uM
[21] = molecular target: Serine/threonine-protein kinase 17B (Homo sapiens) (UniProt O94768); settings: Compound concentration 1.0 uM
[22] = molecular target: Dual specificity mitogen-activated protein kinase kinase 4 (Homo sapiens) (UniProt P45985); assay: MAP2K4 Invitrogen Lab (UK) kinase screen (BI); settings: Compound concentration 1.0 uM
[23] = molecular target: Interleukin-1 receptor-associated kinase 3 (Homo sapiens, UniProt Q9Y616); assay: Dose response measurement (IRAK3)
[24] = molecular target: Mitogen-activated protein kinase kinase kinase kinase 2 (Homo sapiens) (UniProt Q12851); settings: Compound concentration 1.0 uM
[25] = molecular target: NUAK family SNF1-like kinase 2 (Homo sapiens) (UniProt Q9H093); assay: NUAK2 Invitrogen Lab (UK) kinase screen (BI); settings: Compound concentration 1.0 uM
[26] = molecular target: Mu-type opioid receptor (Homo sapiens) (UniProt P35372); settings: Compound concentration 10.0 uM
[27] = molecular target: cGMP-dependent protein kinase 1 (Homo sapiens) (UniProt Q13976); settings: Compound concentration 1.0 uM
[28] = molecular target: Cyclin-dependent kinase 14 (Homo sapiens) (UniProt O94921); assay: CDK14 (PFTK1)/CYC Invitrogen Lab (UK) kinase screen (BI); settings: Compound concentration 1.0 uM
[29] = molecular target: Serine/threonine-protein kinase Nek2 (Homo sapiens) (UniProt P51955); assay: NEK2A DUNDEE kinase screen (BI); settings: Compound concentration 10.0 uM
[30] = molecular target: Myotonin-protein kinase (Homo sapiens) (UniProt Q09013); settings: Compound concentration 1.0 uM
[31] = molecular target: Adrenergic receptor alpha-2 (Rattus norvegicus) (UniProt P22086+P19328+P22909); assay: ALPHA2/R Eurofins SafetyScreen44 (BI); format: protein assay
[32] = molecular target: Glycogen synthase kinase-3 alpha (Homo sapiens) (UniProt P49840); settings: Compound concentration 1.0 uM
[33] = molecular target: 5-hydroxytryptamine receptor 5A (Homo sapiens) (UniProt P47898); settings: Compound concentration 10.0 uM
[34] = molecular target: Tyrosine-protein kinase JAK2 (Homo sapiens) (UniProt O60674); settings: Compound concentration 1.0 uM
[35] = molecular target: Dual specificity mitogen-activated protein kinase kinase 2 (Homo sapiens) (UniProt P36507); settings: Compound concentration 1.0 uM
[36] = molecular target: Sigma non-opioid intracellular receptor 1 (Homo sapiens) (UniProt Q99720); settings: Compound concentration 10.0 uM
[37] = molecular target: Serine/threonine-protein kinase Nek9 (Homo sapiens) (UniProt Q8TD19); settings: Compound concentration 1.0 uM

Chain of Aurora kinase A (Homo sapiens) (O14965 whole entry): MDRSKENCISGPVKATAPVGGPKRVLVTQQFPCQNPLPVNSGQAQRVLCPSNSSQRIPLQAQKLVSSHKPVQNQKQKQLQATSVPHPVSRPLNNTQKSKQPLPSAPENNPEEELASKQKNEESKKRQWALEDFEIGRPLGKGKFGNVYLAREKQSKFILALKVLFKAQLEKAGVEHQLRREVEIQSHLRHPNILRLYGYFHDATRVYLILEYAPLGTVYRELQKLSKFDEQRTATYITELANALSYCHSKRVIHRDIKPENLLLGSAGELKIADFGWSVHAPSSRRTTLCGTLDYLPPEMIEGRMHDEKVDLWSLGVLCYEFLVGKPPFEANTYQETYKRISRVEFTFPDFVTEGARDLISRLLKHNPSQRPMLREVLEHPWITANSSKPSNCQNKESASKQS
Chain of Epidermal growth factor receptor (Homo sapiens) (P00533 whole entry): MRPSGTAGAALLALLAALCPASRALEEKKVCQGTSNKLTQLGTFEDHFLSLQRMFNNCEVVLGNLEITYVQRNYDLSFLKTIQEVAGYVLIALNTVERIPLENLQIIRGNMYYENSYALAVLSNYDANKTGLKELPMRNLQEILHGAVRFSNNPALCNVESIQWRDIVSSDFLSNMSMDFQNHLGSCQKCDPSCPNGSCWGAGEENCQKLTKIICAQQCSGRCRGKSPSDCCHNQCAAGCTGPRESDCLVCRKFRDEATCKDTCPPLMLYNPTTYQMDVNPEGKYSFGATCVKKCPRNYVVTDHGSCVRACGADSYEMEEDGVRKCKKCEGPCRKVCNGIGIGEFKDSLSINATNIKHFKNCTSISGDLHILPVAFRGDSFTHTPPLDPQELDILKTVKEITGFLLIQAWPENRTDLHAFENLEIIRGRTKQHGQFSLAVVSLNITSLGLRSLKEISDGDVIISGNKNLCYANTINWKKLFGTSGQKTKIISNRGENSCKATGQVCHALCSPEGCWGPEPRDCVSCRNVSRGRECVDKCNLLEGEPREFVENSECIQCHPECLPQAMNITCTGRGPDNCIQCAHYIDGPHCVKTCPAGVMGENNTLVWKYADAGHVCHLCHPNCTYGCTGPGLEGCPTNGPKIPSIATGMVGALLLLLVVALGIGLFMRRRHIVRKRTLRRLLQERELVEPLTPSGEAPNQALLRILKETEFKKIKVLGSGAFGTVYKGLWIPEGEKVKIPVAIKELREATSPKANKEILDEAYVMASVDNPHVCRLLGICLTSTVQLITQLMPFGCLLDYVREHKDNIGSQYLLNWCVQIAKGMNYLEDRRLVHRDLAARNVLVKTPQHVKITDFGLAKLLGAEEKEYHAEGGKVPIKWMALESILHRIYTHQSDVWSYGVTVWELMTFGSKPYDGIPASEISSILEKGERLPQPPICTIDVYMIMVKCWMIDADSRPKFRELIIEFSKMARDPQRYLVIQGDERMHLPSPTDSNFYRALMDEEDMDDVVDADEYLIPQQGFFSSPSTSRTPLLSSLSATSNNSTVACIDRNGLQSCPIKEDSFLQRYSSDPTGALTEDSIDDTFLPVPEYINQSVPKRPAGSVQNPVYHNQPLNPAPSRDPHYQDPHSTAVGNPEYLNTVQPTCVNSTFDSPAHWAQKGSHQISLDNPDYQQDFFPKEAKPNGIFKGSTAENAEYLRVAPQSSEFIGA
Chain of Death-associated protein kinase 2 (Homo sapiens) (Q9UIK4 whole entry, looked up): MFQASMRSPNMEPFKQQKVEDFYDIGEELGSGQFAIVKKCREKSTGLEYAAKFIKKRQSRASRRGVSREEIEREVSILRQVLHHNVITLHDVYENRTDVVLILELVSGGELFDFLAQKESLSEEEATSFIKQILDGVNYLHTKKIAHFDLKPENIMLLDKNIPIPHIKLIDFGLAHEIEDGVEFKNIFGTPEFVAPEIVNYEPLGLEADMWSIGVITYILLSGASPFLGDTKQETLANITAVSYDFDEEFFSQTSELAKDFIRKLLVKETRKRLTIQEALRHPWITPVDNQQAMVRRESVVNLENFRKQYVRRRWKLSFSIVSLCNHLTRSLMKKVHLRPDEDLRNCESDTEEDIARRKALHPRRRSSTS
Chain of Casein kinase I isoform delta (Homo sapiens) (P48730 whole entry, looked up, canonical isoform): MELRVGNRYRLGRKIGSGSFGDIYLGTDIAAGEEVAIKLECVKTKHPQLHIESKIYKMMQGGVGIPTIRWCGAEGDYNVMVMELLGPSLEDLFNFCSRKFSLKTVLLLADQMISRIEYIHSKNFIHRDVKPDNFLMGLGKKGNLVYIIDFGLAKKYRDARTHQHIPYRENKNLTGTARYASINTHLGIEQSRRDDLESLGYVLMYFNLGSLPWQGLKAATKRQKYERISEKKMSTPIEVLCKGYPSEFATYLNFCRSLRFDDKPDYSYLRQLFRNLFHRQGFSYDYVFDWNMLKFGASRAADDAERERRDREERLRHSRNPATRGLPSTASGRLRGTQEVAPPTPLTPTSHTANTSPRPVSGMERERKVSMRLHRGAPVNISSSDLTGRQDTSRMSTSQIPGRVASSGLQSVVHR
Chain of cGMP-dependent protein kinase 1 (Homo sapiens) (Q13976 whole entry): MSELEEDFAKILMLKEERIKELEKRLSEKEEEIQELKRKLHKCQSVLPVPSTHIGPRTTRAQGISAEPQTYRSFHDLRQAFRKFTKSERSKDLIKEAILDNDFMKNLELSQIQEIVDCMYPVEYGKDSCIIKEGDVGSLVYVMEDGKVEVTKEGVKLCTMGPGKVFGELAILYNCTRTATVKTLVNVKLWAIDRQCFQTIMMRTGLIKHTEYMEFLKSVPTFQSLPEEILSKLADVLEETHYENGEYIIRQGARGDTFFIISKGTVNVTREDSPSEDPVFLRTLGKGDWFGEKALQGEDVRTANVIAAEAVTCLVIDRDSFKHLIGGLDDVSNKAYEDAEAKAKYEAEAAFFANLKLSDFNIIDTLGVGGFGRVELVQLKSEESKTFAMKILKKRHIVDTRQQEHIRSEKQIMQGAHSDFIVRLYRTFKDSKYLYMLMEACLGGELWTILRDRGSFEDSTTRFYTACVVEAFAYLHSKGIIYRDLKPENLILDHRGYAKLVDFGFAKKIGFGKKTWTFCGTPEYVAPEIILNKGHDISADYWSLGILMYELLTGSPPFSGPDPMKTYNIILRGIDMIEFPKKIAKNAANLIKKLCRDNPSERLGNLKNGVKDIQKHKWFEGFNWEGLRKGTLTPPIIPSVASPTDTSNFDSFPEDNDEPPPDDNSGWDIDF
Chain of Calcium/calmodulin-dependent protein kinase type II subunit delta (Homo sapiens) (Q13557 whole entry): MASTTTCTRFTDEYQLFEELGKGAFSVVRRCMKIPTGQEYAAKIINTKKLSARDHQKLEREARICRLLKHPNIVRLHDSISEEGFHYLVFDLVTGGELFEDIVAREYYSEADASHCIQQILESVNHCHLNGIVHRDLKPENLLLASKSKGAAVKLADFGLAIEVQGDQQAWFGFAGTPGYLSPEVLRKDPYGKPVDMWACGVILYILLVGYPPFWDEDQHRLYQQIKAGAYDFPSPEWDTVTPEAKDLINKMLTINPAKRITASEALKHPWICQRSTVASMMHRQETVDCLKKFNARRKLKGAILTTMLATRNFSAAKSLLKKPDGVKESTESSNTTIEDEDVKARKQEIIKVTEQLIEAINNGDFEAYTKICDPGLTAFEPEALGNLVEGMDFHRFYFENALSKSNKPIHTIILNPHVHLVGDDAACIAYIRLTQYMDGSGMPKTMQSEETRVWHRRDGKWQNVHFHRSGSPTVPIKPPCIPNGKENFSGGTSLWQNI
Chain of 5-hydroxytryptamine receptor 5A (Homo sapiens) (P47898 whole entry): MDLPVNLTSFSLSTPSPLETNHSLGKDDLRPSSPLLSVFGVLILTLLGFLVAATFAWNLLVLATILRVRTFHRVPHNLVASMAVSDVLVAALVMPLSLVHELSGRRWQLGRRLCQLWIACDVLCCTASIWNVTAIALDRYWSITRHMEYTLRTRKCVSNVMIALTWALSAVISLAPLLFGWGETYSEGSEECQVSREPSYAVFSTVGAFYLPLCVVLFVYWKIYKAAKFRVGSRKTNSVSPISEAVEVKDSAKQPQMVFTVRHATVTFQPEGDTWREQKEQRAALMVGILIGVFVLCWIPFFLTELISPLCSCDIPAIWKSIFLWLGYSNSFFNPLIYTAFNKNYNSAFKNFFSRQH
Chain of Mu-type opioid receptor (Homo sapiens) (P35372 whole entry): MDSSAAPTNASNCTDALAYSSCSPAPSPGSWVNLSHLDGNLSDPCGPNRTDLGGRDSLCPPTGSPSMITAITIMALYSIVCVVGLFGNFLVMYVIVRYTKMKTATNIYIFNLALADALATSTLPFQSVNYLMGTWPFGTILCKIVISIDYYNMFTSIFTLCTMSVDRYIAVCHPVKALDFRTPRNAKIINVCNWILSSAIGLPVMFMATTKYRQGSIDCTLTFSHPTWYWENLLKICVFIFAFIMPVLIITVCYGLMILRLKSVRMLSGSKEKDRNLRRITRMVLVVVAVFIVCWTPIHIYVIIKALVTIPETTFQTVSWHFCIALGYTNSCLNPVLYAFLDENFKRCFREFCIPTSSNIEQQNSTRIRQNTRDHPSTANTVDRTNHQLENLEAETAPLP
Chain of Calcium/calmodulin-dependent protein kinase kinase 1 (Homo sapiens) (Q8N5S9 whole entry, looked up): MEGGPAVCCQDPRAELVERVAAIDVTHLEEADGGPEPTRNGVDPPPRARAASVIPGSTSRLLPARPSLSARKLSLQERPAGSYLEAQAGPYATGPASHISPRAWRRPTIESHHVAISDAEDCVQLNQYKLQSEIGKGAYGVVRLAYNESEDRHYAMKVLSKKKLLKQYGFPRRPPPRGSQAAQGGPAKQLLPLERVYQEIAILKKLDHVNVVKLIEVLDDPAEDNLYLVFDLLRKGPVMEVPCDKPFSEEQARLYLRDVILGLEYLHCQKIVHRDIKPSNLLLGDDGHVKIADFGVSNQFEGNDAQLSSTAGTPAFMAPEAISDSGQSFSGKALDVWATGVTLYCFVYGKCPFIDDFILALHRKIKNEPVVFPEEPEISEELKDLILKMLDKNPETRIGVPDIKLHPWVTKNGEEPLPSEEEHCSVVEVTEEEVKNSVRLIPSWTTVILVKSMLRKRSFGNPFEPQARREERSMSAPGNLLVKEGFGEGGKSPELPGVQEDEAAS

## CCC(F)(F)c1cc(N2CCC(S(C)(=O)=O)CC2)nc2sc(C(N)=O)c(N)c12 [BI-605906]
[1]
  residual activity: 102%
[2]
  residual activity: 100%
[3]
  residual activity: 102%
[4]
  inhibition: 44.6%
[5]
  inhibition: 32.6%
[6]
  residual activity: 99%
[7]
  residual activity: 85%
[8]; Compound concentration 1.0 uM
  residual activity: 99%
[8]; Compound concentration 10.0 uM
  residual activity: 90%
[9]
  residual activity: 97%
[10]
  residual activity: 94%
[11]
  Ki: 2620 nM
  pKi: 5.59
[12]
  residual activity: 74.9%
[13]; Compound concentration 1.0 uM
  residual activity: 93%
[13]; Compound concentration 10.0 uM
  residual activity: 38%
[14]
  residual activity: 69%
[15]
  residual activity: 84%
[16]
  residual activity: 66.9%
[17]
  residual activity: 107%
[18]
  residual activity: 96%
[19]
  residual activity: 79%
[20]
  residual activity: 93%
[21]
  residual activity: 97%
[22]
  residual activity: 79%
[23]
  IC50: 921 nM (not active)
[24]
  residual activity: 99%
[25]
  residual activity: 86%
[26]
  inhibition: 5.18%
[27]
  residual activity: 97%
[28]
  residual activity: 70%
[29]
  residual activity: 74.8%
[30]
  residual activity: 95%
[31]; Compound concentration 10.0 uM
  residual activity: 103%
[31]; Compound concentration 100.0 uM
  residual activity: 102%
[32]
  residual activity: 99%
[33]
  inhibition: 6.16%
[34]
  residual activity: 94%
[35]
  residual activity: 91%
[36]
  inhibition: 8.89%
[37]
  residual activity: 99%
